In article PMC4335062, “Data-Driven Prediction and Design of bZIP Coiled-Coil Interactions” (PLoS Computational Biology, 2015):
pKd: −log10 of the molar value. Like-named read-outs stand apart in the source and are kept apart here. Where no end group is shown, it is not given here.

How the values were obtained:
Experiment in all cases: Direct-binding FRET assay
ATF2 = biological target: T1, ATF2 (Homo sapiens, UniProt P15336); conditions: read-out: Kd
T1 construct: made in house
T1 sequence (P15336 352-415 limits assumed): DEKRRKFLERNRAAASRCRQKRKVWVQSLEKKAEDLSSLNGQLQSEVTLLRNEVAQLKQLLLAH
Experimental: (§1) The direct binding assay was performed manually in 384-well plates and is similar to a previously described assay. Wells were filled with 20 μL of 1 mM TCEP-HCl. A 4 μM stock of acceptor protein was made fresh in 1 mM TCEP-HCl, and 20 μL was titrated in 2-fold dilutions over the wells. […] The direct-binding FRET data were fit as previously described. Briefly, the Kd of the designed peptide homodimer was experimentally determined and used with previously determined target homodimer Kd values to determine the heterodimer Kd. The homodimer Kd values used for the human bZIPs were from; experiments done by […] et al. used the same protein constructs for the human bZIP proteins, the same buffer conditions, and the same assay. The fitting used a system of ordinary differential equations to describe the concentrations of homo and heterodimers formed by the donor (D) and acceptor (A) as a function of the heterodimer Kd. MATLAB was used to simulate the binding experiment for different Kd values, and the value that gave the best agreement between simulation and experiment was assigned. A minimum 15% change in the donor fluorescence upon titrating the acceptor peptide from 0 to 1000 nM was required for a fit to be attempted. If this minimum was not met, the interaction was classified as “NS” for no signal change. […] These interactions were marked “AS” to indicate anomalous signal. We attributed this to interactions between the peptides, the dyes and the walls of the assay plates at low concentrations. These curves could not be fit, given their unusual shapes at low concentrations of acceptor. For such curves, we removed the first five points and re-fit the data. […] One example of this is increasing concentrations of acceptor causing an increase in donor fluorescence.

BATF2 = biological target: T2, BATF2 (Homo sapiens, UniProt Q8N1L9); conditions: read-out: Kd
T2 construct: made in house
T2 sequence (Q8N1L9 17-80 limits assumed): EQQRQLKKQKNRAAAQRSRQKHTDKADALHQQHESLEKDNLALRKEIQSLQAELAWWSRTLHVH
Experimental: as §1

DBP = biological target: T3, DBP (Homo sapiens, UniProt Q10586); conditions: read-out: Kd
T3 construct: made in house
T3 sequence (Q10586 255-318 limits assumed): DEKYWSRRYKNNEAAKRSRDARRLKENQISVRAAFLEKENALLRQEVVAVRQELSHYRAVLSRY
Experimental: as §1

FOSL1 = biological target: T4, FOSL1 (Homo sapiens, UniProt P15407); conditions: read-out: Kd
T4 construct: made in house
T4 sequence (P15407 105-168 limits assumed): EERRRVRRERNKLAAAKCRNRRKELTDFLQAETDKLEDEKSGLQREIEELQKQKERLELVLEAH
Experimental: as §1

CREBZF = biological target: T5, CREBZF (Homo sapiens, UniProt Q9NS37); conditions: read-out: Kd
T5 construct: made in house
T5 sequence (Q9NS37 204-267 limits assumed): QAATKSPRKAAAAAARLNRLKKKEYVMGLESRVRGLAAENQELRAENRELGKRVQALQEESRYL
Experimental: as §1

BATF3 = biological target: T6, BATF3 (Homo sapiens, UniProt Q9NR55); conditions: mean or single, read-out: Kd
T6 construct: made in house
T6 sequence (Q9NR55 35-98 limits assumed): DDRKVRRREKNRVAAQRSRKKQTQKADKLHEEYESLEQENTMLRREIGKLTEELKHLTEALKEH
Experimental: as §1

BATF = biological target: T7, BATF (Homo sapiens, UniProt Q16520); conditions: read-out: Kd
T7 construct: made in house
T7 sequence (Q16520 26-89 limits assumed): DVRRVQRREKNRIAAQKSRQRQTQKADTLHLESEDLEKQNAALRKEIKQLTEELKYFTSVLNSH
Experimental: as §1

NFE2L2 = biological target: T8, NFE2L2 (Homo sapiens, UniProt Q16236); conditions: read-out: Kd
T8 construct: made in house
T8 sequence (Q16236 497-560 limits assumed): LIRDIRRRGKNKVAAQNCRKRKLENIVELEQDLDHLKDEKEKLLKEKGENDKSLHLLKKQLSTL
Experimental: as §1

CREB3L3 = biological target: T9, CREB3L3 (Homo sapiens, UniProt Q68CJ9); conditions: read-out: Kd
T9 construct: made in house
T9 sequence (Q68CJ9 243-306 limits assumed): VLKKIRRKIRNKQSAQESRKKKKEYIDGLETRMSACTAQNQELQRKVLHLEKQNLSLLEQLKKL
Experimental: as §1

CREB3L1 = biological target: T10, CREB3L1 (Homo sapiens, UniProt Q96BA8); conditions: mean or single, read-out: Kd
T10 construct: made in house
T10 sequence (Q96BA8 290-353 limits assumed): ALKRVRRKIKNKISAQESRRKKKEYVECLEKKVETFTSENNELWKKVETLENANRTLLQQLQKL
Experimental: as §1

[1] = 4°C, C-terminal rhodamine design, mean or single
[2] = 23°C, C-terminal rhodamine design, mean or single
[3] = 23°C, N-terminal rhodamine design, mean or single
[4] = 37°C, C-terminal rhodamine design, mean or single
[5] = 37°C, N-terminal rhodamine design, mean or single
[6] = 4°C, N-terminal rhodamine design, mean or single
[7] = 4°C, C-terminal rhodamine design
[8] = 4°C, N-terminal rhodamine design
[9] = 23°C, C-terminal rhodamine design
[10] = 23°C, N-terminal rhodamine design
[11] = 37°C, C-terminal rhodamine design
[12] = 37°C, N-terminal rhodamine design
[13] = 4°C, C-terminal fluorescein design as donor, TAMRA target titrated
[14] = 23°C, C-terminal fluorescein design as donor, TAMRA target titrated
[15] = 23°C, C-terminal rhodamine design, repeat 1
[16] = 37°C, C-terminal fluorescein design as donor, TAMRA target titrated
[17] = 37°C, C-terminal rhodamine design, repeat 1

KRIAYLRQRIAELRNENHVLESRIQRMEKEKDALQQDRDHLEYEL [ATF5-d1]
pKd (ATF2; [1]): < 5.30 | pKd (ATF2; [2]): < 5.30 | pKd (ATF2; [3]): < 6.00 | pKd (ATF2; [4]): < 5.30 | pKd (ATF2; [5]): < 6.00 | pKd (BATF2; [1]): 6.23 | pKd (BATF2; [6]): 7.12 | pKd (BATF2; [2]): < 5.30 | pKd (BATF2; [3]): 6.29 | pKd (BATF2; [4]): < 6.00 | pKd (BATF2; [5]): < 5.30 | pKd (DBP; [1]): < 6.00 | pKd (DBP; [6]): < 5.30 | pKd (DBP; [2]): < 6.00 | pKd (DBP; [3]): < 6.00 | pKd (DBP; [4]): < 6.00 | pKd (DBP; [5]): < 6.00 | pKd (FOSL1; [1]): 7.08 | pKd (FOSL1; [6]): 6.57 | pKd (FOSL1; [2]): 6.16 | pKd (FOSL1; [3]): < 5.30 | pKd (FOSL1; [4]): < 6.00 | pKd (CREBZF; [1]): 6.39 | pKd (CREBZF; [6]): 6.43 | pKd (CREBZF; [2]): < 5.30 | pKd (CREBZF; [3]): < 5.30 | pKd (CREBZF; [4]): < 6.00 | pKd (BATF3; [7]): 6.72 | pKd (BATF3; [8]): 7.28 | pKd (BATF3; [9]): 6.10 | pKd (BATF3; [10]): 6.50 | pKd (BATF3; [11]): < 5.30 | pKd (BATF3; [12]): < 5.30 | pKd (BATF; [1]): < 5.30 | pKd (BATF; [6]): 6.87 | pKd (BATF; [2]): < 5.30 | pKd (BATF; [3]): 6.42 | pKd (BATF; [4]): < 5.30 | pKd (BATF; [5]): < 5.30 | pKd (NFE2L2; [1]): < 5.30 | pKd (NFE2L2; [6]): < 6.00 | pKd (NFE2L2; [2]): < 6.00 | pKd (NFE2L2; [3]): < 6.00 | pKd (NFE2L2; [4]): < 5.30 | pKd (NFE2L2; [5]): < 6.00 | pKd (CREB3L3; [1]): 6.64 | pKd (CREB3L3; [6]): < 5.30 | pKd (CREB3L3; [2]): 6.38 | pKd (CREB3L3; [3]): < 5.30 | pKd (CREB3L3; [4]): 6.18 | pKd (CREB3L3; [5]): < 6.00 | pKd (CREB3L1; [7]): 6.80 | pKd (CREB3L1; [8]): < 5.30 | pKd (CREB3L1; [9]): 6.28 | pKd (CREB3L1; [10]): < 5.30 | pKd (CREB3L1; [12]): < 6.00

NQIKTLRTRLSKLRKDNLQLEKDIANLERKAKDLRAEKEQLEYEL [ATF4-d1]
pKd (ATF2; [13]): < 5.30 | pKd (ATF2; 4°C, C-terminal rhodamine design, repeat 1): < 5.30 | pKd (ATF2; [6]): < 6.00 | pKd (ATF2; [14]): < 6.00 | pKd (ATF2; [15]): < 6.00 | pKd (ATF2; [3]): < 6.00 | pKd (ATF2; [16]): < 5.30 | pKd (ATF2; [17]): < 5.30 | pKd (ATF2; [5]): < 6.00 | pKd (BATF2; [13]): < 6.00 | pKd (BATF2; [1]): < 6.00 | pKd (BATF2; [6]): < 6.00 | pKd (BATF2; [14]): < 6.00 | pKd (BATF2; [2]): < 6.00 | pKd (BATF2; [3]): < 6.00 | pKd (BATF2; [16]): < 6.00 | pKd (BATF2; [4]): < 6.00 | pKd (BATF2; [5]): < 6.00 | pKd (DBP; [1]): < 5.30 | pKd (DBP; [6]): < 6.00 | pKd (DBP; [14]): < 6.00 | pKd (DBP; [2]): < 6.00 | pKd (DBP; [3]): < 6.00 | pKd (DBP; [16]): < 6.00 | pKd (DBP; [4]): < 6.00 | pKd (DBP; [5]): < 6.00 | pKd (FOSL1; [13]): < 5.30 | pKd (FOSL1; [1]): < 6.00 | pKd (FOSL1; [6]): < 5.30 | pKd (FOSL1; [14]): < 6.00 | pKd (FOSL1; [2]): < 6.00 | pKd (FOSL1; [3]): < 6.00 | pKd (FOSL1; [16]): < 6.00 | pKd (FOSL1; [4]): < 6.00 | pKd (FOSL1; [5]): < 6.00 | pKd (CREBZF; [1]): < 5.30 | pKd (CREBZF; [6]): > 6.70 | pKd (CREBZF; [14]): < 6.00 | pKd (CREBZF; [2]): < 5.30 | pKd (CREBZF; [3]): < 5.30 | pKd (CREBZF; [16]): < 6.00 | pKd (CREBZF; [4]): < 6.00 | pKd (CREBZF; [5]): < 6.00 | pKd (BATF3; [7]): < 6.00 | pKd (BATF3; [8]): < 6.00 | pKd (BATF3; [9]): < 6.00 | pKd (BATF3; [10]): < 6.00 | pKd (BATF3; [11]): < 6.00 | pKd (BATF3; [12]): < 6.00 | pKd (BATF; [1]): < 6.00 | pKd (BATF; [6]): < 5.30 | pKd (BATF; [14]): < 6.00 | pKd (BATF; [2]): < 6.00 | pKd (BATF; [3]): < 6.00 | pKd (BATF; [16]): < 6.00 | pKd (BATF; [4]): < 6.00 | pKd (BATF; [5]): < 6.00 | pKd (NFE2L2; [13]): < 5.30 | pKd (NFE2L2; [6]): 7.32 | pKd (NFE2L2; [14]): < 6.00 | pKd (NFE2L2; [2]): < 5.30 | pKd (NFE2L2; [15]): < 5.30 | pKd (NFE2L2; 23°C, C-terminal rhodamine design, repeat 2): < 5.30 | pKd (NFE2L2; 23°C, C-terminal rhodamine design, repeat 3): < 5.30 | pKd (NFE2L2; [3]): < 6.00 | pKd (NFE2L2; [16]): < 6.00 | pKd (NFE2L2; [17]): < 6.00 | pKd (NFE2L2; 37°C, C-terminal rhodamine design, repeat 2): < 6.00 | pKd (NFE2L2; 37°C, C-terminal rhodamine design, repeat 3): < 5.30 | pKd (NFE2L2; [5]): < 6.00 | pKd (CREB3L3; [13]): < 6.00 | pKd (CREB3L3; [1]): < 5.30 | pKd (CREB3L3; [6]): < 6.00 | pKd (CREB3L3; [14]): < 6.00 | pKd (CREB3L3; [2]): < 6.00 | pKd (CREB3L3; [3]): < 6.00 | pKd (CREB3L3; [16]): < 6.00 | pKd (CREB3L3; [4]): < 6.00 | pKd (CREB3L3; [5]): < 6.00 | pKd (CREB3L1; [7]): < 5.30 | pKd (CREB3L1; [8]): < 6.00 | pKd (CREB3L1; [9]): > 6.70 | pKd (CREB3L1; [10]): < 6.00 | pKd (CREB3L1; [11]): < 6.00 | pKd (CREB3L1; [12]): < 6.00
